In paper PMC8667925, “New 1,2,4-oxadiazole derivatives with positive mGlu4 receptor modulation activity and antipsychotic-like properties” (Journal of Enzyme Inhibition and Medicinal Chemistry, 2021):
Entries after “also recorded” stand apart in the source; their conditions may differ. Read-outs that look alike come from different tables or passages of the source. Marks after values point to notes of the source that are not given here.

Tests used:
mGlu4 receptor [1] = details: cited from earlier work
DOI-induced HTR = tested on: DOI-induced HTR; parameters: method as in PMID 24947466; details: medium dose of 3, 10 and 30 mg/kg; cited from earlier work
[2] = tested on: Salmonella typhimurium strains TA98 and TA100; format: cell-based; details: TA98 and TA100, with and without S9, ≤ 30 µM
Procedure: The primary assessment of the cardiotoxic risk and mutagenic potential of the six selected 1,2,4-oxadiazole derivatives was performed in the hERG channel assay and the mini-AMES test, respectively. The mutagenicity potential was determined in strains TA98 (frameshift mutation) and TA100 (base-pair substitution) of Salmonella typhimurium in the presence and absence of an exogenous metabolic activation system (rat liver S9 fraction) containing mammalian microsomal enzymes.
The Ames microplate fluctuation protocol (MPF) assay was performed with Salmonella typhimurium strains TA98 and TA100, […]. The bacterial strain as well as the exposure and indicator medium were obtained from Xenometrix AG (Allschwil, Switzerland). […] After the addition of indicator medium, each well of the 24-well plate was aliquoted into 48 wells of a 384-well plate.
The occurrence of reversion events to histidine prototrophy was observed as the growth of bacteria in the indicator medium without histidine after 72 h of incubation at 37 °C. Bacterial growth in 384-well plates was visualised by a colour change of medium from violet to yellow due to the addition of pH indicator dye. The absorbance was measured with a microplate reader (EnSpire) at 420 nm. The reference mutagen NQNO (0.5 mM) was used as a positive control in the experiments. The medium control baseline (MCB) was calculated, as derived from the mean number of revertants in the medium control plus one standard deviation.
AMES test was conducted with two Salmonella typhimurium strains TA98 and TA100 in the presence or absence of liver homogenate S9 to simulate the metabolic conversions of tested compounds with liver enzymes. The AMES MPF 98/100 assay from Xenometrix was performed as described by the supplier. Data were analysed with the AMES MPF calculation […]
(also on this page, place not known: TA10 cal culation TA98 - S9 Revertants TA98 + S9 Revertants - S9 Revertants TA100 + S9 Revertants TA98 - S9 Revertants TA98 + S9 Revertants TA100 - S9 Revertants 0 TA100 + S9 Revertants)

Albino Swiss mice [3] = experiment: DOI-induced head twitch test (HTR); format: in vivo; details: over the doses 2.5, 5 and 10 mg/kg i.p.; DOI 2.5 mg/kg i.p.
Procedure: (§1) The compounds were dissolved in a small amount of 100% EtOH and then adjusted with 20% cyclodextrin, and the pH was adjusted to 6.0. The investigated compounds were administered intraperitoneally (i.p.) 60 min before the behavioural test. Control drugs i.e. diazepam, clozapine and imipramine (Sigma–Aldrich, St. Louis, USA), were administered i.p. 60 min before the behavioural test. Cyclodextrin (20%) was used as a vehicle. All solutions were prepared immediately prior to the experiments and were administered at a constant volume of 10 ml/kg.
The experiments were performed according to the procedure described in our previous studies[75]^,[80]. Briefly, to habituate mice to the experimental environment, each animal was transferred to a 12 cm (diameter) × 20 cm (height) glass cage lined with sawdust 30 min before treatment. Test compounds were administered intraperitoneally (i.p.) at doses of 2.5, 5, and 10 mg/kg body weight 60 min before the test was performed. The head twitch response (HTR) in mice was induced by DOI (2.5 mg/kg, i.p.). Immediately after treatment, the number of head twitches was counted during a 20 min session. Haloperidol and clozapine were used as the reference compounds at active doses of 0.2 and 5 mg/kg, respectively.

mGlu7 receptor = target: T1, mGlu7 receptor (Homo sapiens, UniProt Q14831); experiment: cAMP accumulation assay in cells expressing mGlu7 receptor (agonist, PAM, NAM modes); format: cell-based; details: 10 µM, agonist mode
T1 construct: mGlu4 receptor NM_000841, mGlu7 receptor NM_000844.2, and mGlu8 receptor NM_000845; expressed in transfected cells; host or cells: T-REx 293
T1 sequence (Q14831 35-915): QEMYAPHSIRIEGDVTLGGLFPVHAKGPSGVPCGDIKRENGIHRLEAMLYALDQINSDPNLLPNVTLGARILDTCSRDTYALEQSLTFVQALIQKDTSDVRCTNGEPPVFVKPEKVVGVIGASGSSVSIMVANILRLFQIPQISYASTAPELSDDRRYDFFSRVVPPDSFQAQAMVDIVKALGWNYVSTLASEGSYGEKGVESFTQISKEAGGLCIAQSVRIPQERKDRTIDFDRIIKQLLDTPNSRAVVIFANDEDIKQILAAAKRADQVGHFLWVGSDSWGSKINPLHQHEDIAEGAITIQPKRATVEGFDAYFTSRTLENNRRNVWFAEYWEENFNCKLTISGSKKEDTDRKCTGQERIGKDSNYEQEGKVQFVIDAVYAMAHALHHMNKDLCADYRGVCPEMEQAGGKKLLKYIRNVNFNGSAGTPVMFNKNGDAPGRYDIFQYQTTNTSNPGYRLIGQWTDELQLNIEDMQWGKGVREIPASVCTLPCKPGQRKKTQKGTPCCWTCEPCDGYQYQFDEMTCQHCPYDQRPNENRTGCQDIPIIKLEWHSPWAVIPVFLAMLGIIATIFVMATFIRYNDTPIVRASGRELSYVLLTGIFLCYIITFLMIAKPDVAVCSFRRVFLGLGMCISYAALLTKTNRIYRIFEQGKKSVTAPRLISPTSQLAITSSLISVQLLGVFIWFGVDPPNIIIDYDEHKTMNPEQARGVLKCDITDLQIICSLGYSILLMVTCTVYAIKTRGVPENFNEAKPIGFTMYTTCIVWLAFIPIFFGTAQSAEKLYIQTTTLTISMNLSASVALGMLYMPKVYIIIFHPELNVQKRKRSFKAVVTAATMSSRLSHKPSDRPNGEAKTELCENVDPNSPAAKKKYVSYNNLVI
Procedure: (§2) The compounds were tested in the agonist, PAM (in the presence of EC20 concentration of L-Glu) or NAM (with EC80 of L-Glu) modes of forskolin-induced cAMP using T-REx 293 cells expressing the protein of a given receptor.
(§3) Figure 4. The activity of compounds 34, 37, 49, 52, 60, 62 and reference drugs MMPIP (a selective NAM of mGlu7 receptor) and AZ12216052 (a PAM of mGlu8 receptor) tested at a concentration of 10 μM in the cAMP accumulation assay in cells expressing mGlu7 and mGlu8 receptors. The percent activity refers to two extreme FRET signals: 0% corresponds to forskolin treatment alone and 100% to maximal FRET signal for the control cells (without any treatment). A/D – agonistic activity; B/E – PAM activity measured in the presence of L-Glu at the EC20 concentration (0.1 mM for mGlu7 receptor, and 1 μM for mGlu8 receptor); C/F – NAM activity measured in the presence of L-Glu at the EC80 concentration (1 mM for mGlu7 receptor, 10 μM for Glu8 receptor).
(§4) Determination of the intracellular cAMP through a homogeneous time-resolved fluorescence (HTRF) cAMP dynamic 2 kit from Cisbio (Codolet, France) was described previously by Chruścicka et al.[91]. Briefly, cells were grown in DMEM supplemented with 10% foetal bovine serum (FBS) (tetracycline free). Forty-eight hours before the experiments, mGlu receptor expression was induced by the addition of 0.75 µg/mL tetracycline. Twenty hours before the experiment, FBS and L-Glu were removed from the medium. Thereafter, the cells were scraped and centrifuged. A cell pellet was suspended in Hanks-HEPES (130 mM NaCl, 5.4 mM KCl, 1.8 mM CaCl2, 0.8 mM MgSO4, 0.9 mM NaH2PO4, 20 mM HEPES, and 3.25 mM glucose; pH 7.4). Then, the cell suspension was incubated in the presence of 10 µM forskolin (or 3 µM forskolin for mGlu7 receptor), the agonist L-glutamate and a compound for 5 min. Next, 10 µl of the cell suspension was mixed with 5 µl of cAMP-d2 conjugate and 5 µL of anti-cAMP cryptate conjugate. After 1 h of incubation at rt, the fluorescence at 620 nm and 665 nm was read (Tecan Infinite M1000). The results were calculated as the 665 nm/620 nm ratio multiplied by 10^4. Each sample was prepared in triplicate.

Albino Swiss mice [4] = experiment: modified stress-induced hyperthermia (SIH) in singly housed mice; format: in vivo; details: over the doses 5, 10 and 20 mg/kg i.p.
Procedure: as §1
The procedure for modified stress-induced hyperthermia was adapted from Van der Heyden[93] and based on the procedure introduced by Borsini[94]. Each experimental group consisted of eight to ten animals. The animals were housed individually in a 26 × 21 × 14 cm Macolon cage 24 h before testing. For this assay, the body temperature was measured for each mouse at t = 0 min (T1) and t = +15 min (T2). Albino Swiss mice were placed into a new cage immediately following T1, with the difference in temperature (T2−T1) used as the measure of stress-induced hyperthermia. […] A comparison between T1 in vehicle-treated mice and those administered the test compound was used to determine whether the agent affects body temperature alone. Diazepam (5 mg/kg) was used as the positive control. The rectal temperature was measured to the nearest 0.1 °C with a Physitemp Theralert thermometer, TH-5, Clifton NJ, USA, with the temperature sensor for mice, Type T, Copper-Constantan Thermocouple, Braintree Scientific Inc. The lubricated thermistor probe (2 mm diameter) was inserted 20 mm into the rectum. The mouse was held at the base of the tail during this determination, and the thermistor probe was left in place until a constant reading was obtained for 15 s. The effects of the investigated compounds on the SIH response were investigated after administration of the compounds at doses of 5, 10 and 20 mg/kg.

mGlu4 receptor [5] = target: T2, mGlu4 receptor (Homo sapiens, UniProt Q14833); experiment: forskolin-stimulated cAMP assay, PAM mode (EC20 of L-Glu), T-REx 293 cells; format: cell-based; details: SEM where given; for EC50 / Emax: PAM mode; for EC50: EC20 (3 µM) L-Glu, T-REx 293 cells expressing human mGlu4 receptor; for Emax: T-REx-293, human mGlu4, read-out: GluMax; for Fold shift of L-Glu dose-response curve: in the presence of 10 µM of compound
T2 construct: mGlu4 receptor NM_000841, mGlu7 receptor NM_000844.2, and mGlu8 receptor NM_000845; expressed in transfected cells; host or cells: T-REx 293
T2 sequence (Q14833 33-912): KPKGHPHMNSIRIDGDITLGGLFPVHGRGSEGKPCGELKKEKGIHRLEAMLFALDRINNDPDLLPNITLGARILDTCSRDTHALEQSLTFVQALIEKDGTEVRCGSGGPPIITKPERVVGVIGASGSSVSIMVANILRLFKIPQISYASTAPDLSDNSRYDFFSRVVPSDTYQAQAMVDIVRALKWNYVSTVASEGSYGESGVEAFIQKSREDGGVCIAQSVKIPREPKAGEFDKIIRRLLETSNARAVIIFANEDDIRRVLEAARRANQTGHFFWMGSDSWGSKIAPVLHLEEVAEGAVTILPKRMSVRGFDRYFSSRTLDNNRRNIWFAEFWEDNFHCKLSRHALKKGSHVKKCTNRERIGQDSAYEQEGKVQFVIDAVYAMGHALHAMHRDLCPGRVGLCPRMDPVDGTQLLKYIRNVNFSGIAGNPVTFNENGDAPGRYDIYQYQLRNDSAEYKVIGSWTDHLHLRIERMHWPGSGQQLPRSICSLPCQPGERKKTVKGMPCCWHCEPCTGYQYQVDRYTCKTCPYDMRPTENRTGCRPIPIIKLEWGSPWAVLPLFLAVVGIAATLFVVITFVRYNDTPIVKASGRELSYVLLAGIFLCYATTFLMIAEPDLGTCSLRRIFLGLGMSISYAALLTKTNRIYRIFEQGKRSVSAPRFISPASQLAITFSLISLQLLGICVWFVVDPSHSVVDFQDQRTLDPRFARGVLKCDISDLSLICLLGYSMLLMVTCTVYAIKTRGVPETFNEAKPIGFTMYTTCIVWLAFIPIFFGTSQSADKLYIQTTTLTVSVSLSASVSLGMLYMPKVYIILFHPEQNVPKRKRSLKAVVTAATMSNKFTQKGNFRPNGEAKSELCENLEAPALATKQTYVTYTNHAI
Procedure: The activity of the compounds was assessed in vitro in a forskolin-stimulated cAMP assay in T-REx 293 cells expressing human mGlu4 receptors in the presence of an EC20 concentration of L-Glu; a PAM was identified if it potentiated cAMP inhibition by the Gi/o-dependent pathway of mGlu4 receptor activation; i.e. if it was able to produce a leftward shift in the potency of the endogenous agonist.
as §4
Statistical calculations were performed using GraphPad Prism 5.04 software (GraphPad Software, La Jolla, CA, USA). The curves were fitted to a 3-parametric logistic equation, allowing for the determination of EC50 values. Each data point was analysed in triplicate.

mGlu8 receptor = target: T3, mGlu8 receptor (Homo sapiens, UniProt O00222); experiment: cAMP accumulation assay in cells expressing mGlu8 receptor (agonist, PAM, NAM modes); format: cell-based; details: 10 µM, agonist mode
T3 construct: mGlu4 receptor NM_000841, mGlu7 receptor NM_000844.2, and mGlu8 receptor NM_000845; expressed in transfected cells; host or cells: T-REx 293
T3 sequence (O00222 34-908): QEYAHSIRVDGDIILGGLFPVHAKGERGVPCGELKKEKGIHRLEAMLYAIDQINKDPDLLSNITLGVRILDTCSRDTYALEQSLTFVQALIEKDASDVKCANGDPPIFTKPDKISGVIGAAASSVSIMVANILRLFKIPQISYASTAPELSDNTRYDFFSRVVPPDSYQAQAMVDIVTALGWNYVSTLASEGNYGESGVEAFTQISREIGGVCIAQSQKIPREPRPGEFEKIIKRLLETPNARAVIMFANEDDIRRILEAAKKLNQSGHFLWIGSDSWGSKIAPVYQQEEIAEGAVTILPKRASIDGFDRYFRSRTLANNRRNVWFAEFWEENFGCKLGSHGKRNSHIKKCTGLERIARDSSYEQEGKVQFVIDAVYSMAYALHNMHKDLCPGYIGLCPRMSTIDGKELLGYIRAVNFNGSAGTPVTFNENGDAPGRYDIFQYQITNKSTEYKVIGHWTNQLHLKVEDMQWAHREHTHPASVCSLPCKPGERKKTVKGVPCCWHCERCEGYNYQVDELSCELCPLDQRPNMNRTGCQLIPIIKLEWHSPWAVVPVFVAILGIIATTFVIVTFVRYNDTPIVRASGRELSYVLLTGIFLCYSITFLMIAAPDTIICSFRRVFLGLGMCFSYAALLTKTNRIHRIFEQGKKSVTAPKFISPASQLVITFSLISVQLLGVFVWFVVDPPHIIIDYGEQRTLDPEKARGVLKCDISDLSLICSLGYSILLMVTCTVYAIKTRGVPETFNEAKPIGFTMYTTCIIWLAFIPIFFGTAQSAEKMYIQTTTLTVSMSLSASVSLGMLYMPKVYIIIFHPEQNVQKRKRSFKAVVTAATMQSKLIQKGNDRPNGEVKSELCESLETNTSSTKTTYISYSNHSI
Procedure: as §2, §3, §4

mGlu4 receptor [6] = target: T2, mGlu4 receptor; experiment: forskolin-induced cAMP assay, agonist mode, T-REx 293 cells; format: cell-based
Procedure: as §2, §4

[7] = tested on: untransfected cells of the T-REx 293 line; experiment: forskolin-induced cAMP accumulation in untransfected (mock) cells, control experiment; format: cell-based; details: untransfected T-REx 293 cells
Procedure: 2. In vitro mGlu receptor selectivity profile
Figure S1. Activity of compounds 34, 37, 49, 52, 60 and 62 in forskolin -induced cAMP accumulation in untransfected cells of the T-REx 293 line. Similar to reference mGlu4 receptor […]
cAMP assay in the mock T-REx 293 cell line. […]
receptor used as reference drug) tested at a concentration of 10 μM in NAM mode (in the presence of EC80 concentration of L-Glu (30 μM)) by the cAMP accumulation assay in cells expressing mGlu4 receptor. […]

Cc1ccnc(Nc2nc(-c3cn[nH]c3)c(C)s2)n1 [ADX88178]
reduction of DOI-induced HTR (DOI-induced HTR): ≤ 30%

O=C(Nc1ccc(-c2noc(-c3ccccc3)n2)c(Cl)c1)c1ccccn1 [Compound 49]
mutagenic activity (mini-AMES) [2]: no mutagenic potential | effect on DOI-induced HTR (Albino Swiss mice [3]): not effective; also recorded: no influence | agonistic activity at mGlu7 receptor (mGlu7 receptor): direct agonistic activity | effect on SIH response (Albino Swiss mice [4]): not effective | EC50 (mGlu4 receptor [5]): 352 nM | Emax (mGlu4 receptor [5]): 123% | Fold shift of L-Glu dose-response curve (mGlu4 receptor [5]): 6.77 (0.53)^d

Cc1cc(NC(=O)c2ccccn2)ccc1-c1noc(-c2ccccc2Cl)n1 [Compound 62, N-(4-(5-(2-chlorophenyl)-1,2,4-oxadiazol-3-yl)-3-methylphenyl)picolinamide]
mutagenic activity (mini-AMES) [2]: no mutagenic potential | agonistic activity at mGlu8 receptor (mGlu8 receptor): lacked agonistic action | agonistic action at mGlu4 receptor (mGlu4 receptor [6]): lacked agonistic action | effect on DOI-induced HTR (Albino Swiss mice [3]): significant anxiolytic- and antipsychotic-like properties; also recorded: at all doses significantly reduced; also recorded: Clear dose-response effects; also recorded: clear dose-dependent response and high potency; also recorded: comparable to that of clozapine | agonistic activity at mGlu7 receptor (mGlu7 receptor): lacked agonistic action | effect on SIH response (Albino Swiss mice [4]): significant anxiolytic- and antipsychotic-like properties; also recorded: significantly reduced SIH responses at all three doses; also recorded: at all doses significantly reduced the SIH response | EC50 (mGlu4 receptor [5]): 308 nM | Emax (mGlu4 receptor [5]): 135% | Fold shift of L-Glu dose-response curve (mGlu4 receptor [5]): 3.3 (0.34)^d

O/N=c1\cc(-c2cc3sccc3cn2)oc2ccc(CCCN3CCOCC3)cc12 [PXT002331]
EC50 (mGlu4 receptor [1]; PAM, read-out: mGlu4 PAM potency EC50): 46 nM

O=C(Nc1cc(Cl)cc(Cl)c1)[C@H]1CCCC[C@H]1C(=O)O [VU0155041]
EC50 (mGlu4 receptor [1]; reference ago-PAM, read-out: agonist activity at mGlu4 receptor, EC50): 2500 nM | effect on forskolin-induced cAMP accumulation in mock cells [7]: no effects

O=C(Nc1ccccn1)C12CC1C(=NO)c1ccccc1O2 (centres unmarked) [VU0359516]
EC50 (mGlu4 receptor [1]; PAM, read-out: EC50 (mGlu4 receptor PAM)): 380 nM

FC(F)(F)c1nccc2cc(Nc3n[nH]c4ncccc34)ccc12 [Valiglurax]
EC50 (mGlu4 receptor [1]; PAM, read-out: mGlu4 receptor PAM potency EC50): 64.6 nM
